Results reported in paper PMC10761937, “Functional engineering of human iPSC‐derived parasympathetic neurons enhances responsiveness to gastrointestinal hormones” (FEBS Open Bio, 2023).

Test system: NPY2R
Experiment: Ca^2+ imaging, NPY2R‐HEK293T cells
Assay type: cell-based, human
Conditions: PYY (3-36) per Fig. S2B, Fluo‐8 AM, Ringer's solution pH 7.4, ΔF/F0, n = 10
Procedure: HEK293T cells (Lenti‐X 293T Cell line; TaKaRa, Shiga, Japan) were maintained in Dulbecco's Modified Eagle Medium (DMEM; Fujifilm Wako Pure Chemical Industries, Osaka, Japan) supplemented with 10% fetal bovine serum (Biowest, Nuaillé, France), 1% non‐essential amino acids (NEAA) (Fujifilm Wako Pure Chemical Industries), and 1% penicillin–streptomycin (P/S) (Fujifilm Wako Pure Chemical Industries) and cultured in non‐coated culture plates at 37 °C and in an incubator with 5% CO2. The culture medium was replaced every 2–3 days. At 80–90% confluence, the cell colonies were digested into single cells using TrypLE Express (Thermo Fisher Scientific). The resulting cells were used for lentiviral transfection and agonist experiments.
Figure S1 presents the protocol used for this experiment. Lentiviral vectors were acquired from VectorBuilder (VectorBuilder Japan, Inc., Kanagawa, Japan). […]
Transduced HEK293T and neurons were incubated with 10 μM Fluo‐8 AM, a calcium indicator (AAT Bioquest, Pleasanton, CA, USA), in each culture medium (Cell lines and cell culture and Induction to parasympathetic neurons sections) at 37 °C for 30 min. […] Fluorescence (excitation: 490 nm, emission: 525 nm) was detected using a confocal spinning disk confocal laser scanning unit (CSU‐W1; Yokogawa Electric, Tokyo, Japan) and an LED light (X‐Cite 120LED; Opto Science, Tokyo, Japan). […]

Substance: PYY: PYY (4400‐v; Peptide Institute, Inc.); PYY (3–36) in Ca2+ imaging
- Concentration giving response (increased intracellular Ca^2+ concentration): > 10 nM
